Test results as given in article PMC9274761, “Effects of Structurally Different HDAC Inhibitors against Trypanosoma cruzi, Leishmania, and Schistosoma mansoni” (ACS Infectious Diseases, 2022).
Where “and” joins values, the source holds several entries; their conditions need not be identical. Equal values may be shown once. Read-outs that look alike come from different tables or passages of the source.

Experiments:
[1] = system: newly transformed schistosomula (NTS); assay: Phenotypic screening on newly transformed schistosomula (NTS); format: cell-based, Schistosoma mansoni; details: for IC50: Schistosoma mansoni, 72 h, read-out: IC50, viability of NTS
S. mansoni adult worms = assay: Phenotypic screening on S. mansoni adult worms; format: cell-based, Schistosoma mansoni; details: 72 h
[2] = system: human retinal pigment epithelial (RPE) cells; assay: MTT viability assay in RPE cells; format: cell-based; details: Homo sapiens, RPE, 48 h, read-out: IC50 in RPE cells (cell viability)
[3] = MTT viability assay in RPE cells; format: cell-based, human; details: human, retinal pigment epithelial (RPE) cells, read-out: percentage of RPE cell viability, 48 h
[4] = system: T. cruzi amastigotes and trypomastigotes; assay: T. cruzi infection assay in L929 cells (beta-galactosidase Tulahuen strain); format: cell-based, Trypanosoma cruzi; details: for EC50, growth of T. cruzi amastigotes and trypomastigotes / EC50: mean ± SD; for selectivity index (SI), CC50/EC50: L929 CC50 / T. cruzi EC50; for EC50: read-out: EC50, growth of T. cruzi amastigotes and trypomastigotes
[5] = system: L. amazonensis amastigotes in primary mouse macrophages; details: 10 μM, 3 days, toxic = toxic for macrophages
[6] = system: L. donovani axenic amastigotes; assay: Resazurin reduction assay, L. donovani axenic amastigotes; format: cell-based; details: Leishmania donovani, read-out: percentage of inhibition, L. donovani axenic amastigotes
in vitro = details: mouse
[7] = system: L. amazonensis promastigotes; assay: Resazurin reduction assay, L. amazonensis promastigotes; format: cell-based; details: Leishmania amazonensis, read-out: percentage of inhibition, L. amazonensis promastigotes
[8] = system: L. donovani promastigotes; assay: Resazurin reduction assay, L. donovani promastigotes; format: cell-based; details: Leishmania donovani, read-out: percentage of inhibition, L. donovani promastigotes
[9] = 40 μM, infected L929 cells, 96 h, toxic = L929 death
[10] = 80 μM, infected L929 cells, 96 h, toxic = L929 death
[11] = 160 μM, infected L929 cells, 96 h, toxic = L929 death
[12] = Trypanosoma cruzi, infected L929 cells, 96 h, read-out: percentage of T. cruzi growth inhibition
[13] = Trypanosoma cruzi, 2.5 μM, infected L929 cells, 96 h, toxic = L929 death, read-out: percentage of T. cruzi growth inhibition
[14] = Trypanosoma cruzi, 5 μM, infected L929 cells, 96 h, toxic = L929 death, read-out: percentage of T. cruzi growth inhibition
[15] = Trypanosoma cruzi, 10 μM, infected L929 cells, 96 h, toxic = L929 death, read-out: percentage of T. cruzi growth inhibition
[16] = Trypanosoma cruzi, 20 μM, infected L929 cells, 96 h, toxic = L929 death, read-out: percentage of T. cruzi growth inhibition
[17] = noninfected L929 fibroblast cells
[18] = 10 μM, infected L929 cells, 96 h, toxic = L929 death
[19] = 20 μM, infected L929 cells, 96 h, toxic = L929 death
[20] = Trypanosoma cruzi, L929, 96 h, infected L929 cells, 96 h

SMILES	percentage of NTS activity, 72 h ([1]; 1 μM)	percentage of NTS activity, 72 h ([1]; 10 μM)	percentage of NTS activity, 72 h ([1]; 20 μM)	IC50 [1]	percentage of activity (death induction), S. mansoni adult worms (S. mansoni adult worms; 10 μM)	percentage of activity (death induction), S. mansoni adult worms (S. mansoni adult worms; 20 μM)	IC50 [2]	viability at 48 h, 1 µM [3]	viability at 48 h, 5 µM [3]	viability at 48 h, 10 µM [3]	viability at 48 h, 25 µM [3]	viability at 48 h, 50 µM [3]	percentage of T. cruzi growth inhibition [4, 9]	percentage of T. cruzi growth inhibition [4, 10]	percentage of T. cruzi growth inhibition [4, 11]	inhibition at 1.25 µM [4, 12]	inhibition at 2.5 µM [4, 13]	inhibition at 5 µM [4, 14]	EC50, growth of T. cruzi amastigotes and trypomastigotes ([4]; infected L929 cells, 96 h)	CC50 at 96 h (in vitro; [17])	further results
CC(C)(C)OC(=O)Nc1ccc(C(=O)/C=C/c2ccc(/C=C/C(=O)NO)cc2)cc1 [Compound 20]	22.0 ± 1.0%	100.0 ± 0.0%	100.0 ± 0.0%	1.32 µM	31.3 ± 2.0%	40.5 ± 2.6%	27.2 µM	80 ± 11%	71.6 ± 9.2%	63 ± 6%	59.5 ± 2.4%	45.6 ± 4.8%									
Cn1c(/C=C/C(=O)c2ccc(NC(=O)OC(C)(C)C)cc2)ccc1C(=O)NO [Compound 17]	28.0 ± 0.0%	100.0 ± 0.0%	100.0 ± 0.0%	1.23 µM		58.6 ± 0%	> 50 µM	74.2 ± 5.2%	91.8 ± 11.5%	102 ± 15.2%	91.9 ± 4.5%	77.4 ± 2.3%									
O=C(CCCCSc1nc(-c2ccc(-c3ccccc3)cc2)cc(=O)[nH]1)NO [Compound 1]		29.3 ± 0.9%	43.3 ± 1.9%	> 20 µM									toxic	toxic	toxic ^e	0%	0%	0%	inactive	20 µM	inhibition at 10 µM [4, 15]: 0%; inhibition at 20 µM [4, 16]: 0%; HCA outcome against intramacrophagic L. amazonensis amastigotes [5]: toxic; inhibition at 20 µM [6]: 29 ± 14%; inhibition at 20 µM [7]: 2.1 ± 3.2%
CC(C)(C)OC(=O)Nc1ccc(C(=O)/C=C/c2ccc(C(=O)NO)cc2)cc1 [Compound 18]	26.0 ± 1.0%	100.0 ± 0.0%	100.0 ± 0.0%	1.26 µM	43.1 ± 2.0%	56.0 ± 7.8%	24.7 µM	67.9 ± 4.2%	73.8 ± 3.3%	71 ± 7.8%	50.3 ± 7.4%	43.1 ± 0.1%									
O=C(/C=C/c1ccc(Cc2nnc(Cc3cccc4ccccc34)o2)cc1)NO [Compound 7]		38.0 ± 1.2%	39.4 ± 1.0%	> 20 µM									toxic	toxic	toxic	0%	0%	21%	inactive	5 µM	percentage of T. cruzi growth inhibition [4, 18]: toxic; percentage of T. cruzi growth inhibition [4, 19]: toxic
O=C(/C=C/c1ccc(NC(=O)Cc2cccc3ccccc23)cn1)NO [Compound 5]		31.0 ± 0.0%	30.8 ± 0.0%	> 20 µM									toxic	toxic	toxic	0%			inactive	1.25 µM	percentage of T. cruzi growth inhibition ([4]; 2.5 μM, infected L929 cells, 96 h, toxic = L929 death): toxic; percentage of T. cruzi growth inhibition ([4]; 5 μM, infected L929 cells, 96 h, toxic = L929 death): toxic; percentage of T. cruzi growth inhibition [4, 18]: toxic; percentage of T. cruzi growth inhibition [4, 19]: toxic
CC(C)(C)OC(=O)Nc1cccc(C(=O)/C=C/c2ccc(C(=O)NO)cc2)c1 [Compound 19]	24.0 ± 0.0%	100.0 ± 0.0%	100.0 ± 0.0%	1.29 µM		58.6 ± 0%	48.7 µM	75.6 ± 16.9%	80.5 ± 13.7%	82 ± 12.3%	68.6 ± 1.3%	52.8 ± 16.1%									
CC(C)(C)OC(=O)Nc1cccc(C(=O)/C=C/c2ccc(/C=C/C(=O)NO)cc2)c1 [Compound 4]	24% and 24.0 ± 0.0%	100% and 100.0 ± 0.0%	100% and 100.0 ± 0.0%	1.29 µM	45.1 ± 3.9%	63.8 ± 0%	15.6 µM	75.7 ± 11.4%	71.5 ± 12.8%	50.2 ± 8.4%	40.4 ± 9.8%	45.2 ± 6.6%	toxic	toxic	toxic	0%	0%	85%		5 µM	inhibition at 20 µM [8]: 95.9 ± 0.3%; percentage of T. cruzi growth inhibition [4, 18]: toxic; percentage of T. cruzi growth inhibition [4, 19]: toxic; selectivity index (SI), CC50/EC50 [4]: 1.25; EC50 [4, 20]: 4 ± 0.07 µM; HCA outcome against intramacrophagic L. amazonensis amastigotes [5]: toxic; inhibition at 0.8 µM [6]: 39.5 ± 2%; inhibition at 4 µM [6]: 61.4 ± 4.3%; inhibition at 20 µM [6]: 93.6 ± 0.4%; inhibition at 0.8 µM [7]: 10.5 ± 2.9%; inhibition at 4 µM [7]: 95.7 ± 0.3%; inhibition at 20 µM [7]: 97.9 ± 0.4%
CC1=C(/C=C/C(C)=C/C=C/C(C)=C/C(=O)Nc2ccccc2N)C(C)(C)CCC1 [Compound 8]		37.9 ± 0.0%	70% and 71.1 ± 1.0%	12.8 µM	36.1 ± 2.8%	52.8 ± 2.8%	> 50 µM	95.3 ± 28.7%	115 ± 9.4%	90.4 ± 16.7%	98.8 ± 4.6%	72 ± 5.8%			toxic	0%	0%	7%		80 µM	inhibition at 0.8 µM ([8]; 0.8 μM): 2.3 ± 1.4%; inhibition at 20 µM [8]: 6.3 ± 1.7%; selectivity index (SI), CC50/EC50 [4]: 5.7; EC50 [4, 20]: 13.9 µM; inhibition at 10 µM [4, 15]: 32%; inhibition at 20 µM [4, 16]: 78%; inhibition at 40 µM ([4]; Trypanosoma cruzi, 40 μM, infected L929 cells, 96 h, toxic = L929 death, read-out: percentage of T. cruzi growth inhibition): 76%; inhibition at 80 µM ([4]; Trypanosoma cruzi, 80 μM, infected L929 cells, 96 h, toxic = L929 death, read-out: percentage of T. cruzi growth inhibition): 88%; EC50 ([4]; infected L929 cells, 96 h): 14 ± 3.4 µM; inhibition at 0.8 µM [6]: 4.3 ± 1.1%; inhibition at 4 µM [6]: 5.8 ± 2.5%; inhibition at 20 µM [6]: 41.8 ± 1.4%; inhibition at 0.8 µM [7]: 8.1 ± 2.1%; inhibition at 4 µM [7]: 8.3 ± 3.4%
O=C(Cn1ccnc1[N+](=O)[O-])NCc1ccccc1 [BZN, benznidazole, reference compound]																					selectivity index (SI), CC50/EC50 [4]: 625; EC50 [4, 20]: 3.8 µM
Nc1ccccc1NC(=O)c1ccc(CNC(=O)OCc2cccnc2)cc1 [Compound 9, entinostat, reference compound]		40.0 ± 2.0%	42.3 ± 0.0%	> 20 µM									toxic	toxic	toxic	0%	0%	0%	inactive		inhibition at 10 µM [4, 15]: 0%; inhibition at 20 µM [4, 16]: 0%; HCA outcome against intramacrophagic L. amazonensis amastigotes [5]: toxic; inhibition at 0.8 µM [6]: 6.7 ± 3.8%; inhibition at 4 µM [6]: 2.9 ± 10.1%; inhibition at 20 µM [6]: 28.9 ± 0.9%; CC50 at 96 h (in vitro): 20 µM
